Measured values as given in patent publication US20240166609A1, “ANTIBACTERIAL COMPOUNDS” (BLACKSMITH MEDICINES, INC., priority 2021, published 2024).
pIC50: −log10 of the molar value. Values after ≈ are worked out from the molar mass of the structure shown.

How the values were obtained:
E. coli ATCC25922 = assay: Bacterial susceptibility testing, MIC by broth microdilution (CLSI); assay type: cell-based; conditions: Escherichia coli, 35° C., 18-24 h, read-out: MIC (μg/mL) E. coli ATCC25922
Protocol: (§1) Minimal inhibitory concentrations (MIC) were determined by the broth microdilution method in accordance with the Clinical and Laboratory Standards Institute (CLSI) guidelines. In brief, organism suspensions were adjusted to a final inoculum between 3×10^5 and 7×10^5 colony-forming units (CFU)/mL. Drug dilutions and inocula were made in sterile, cation adjusted Mueller-Hinton Broth (Beckton Dickinson). In wells, an inoculum volume of 100 μL was mixed to 2 μL of DMSO with 2-fold serial dilutions of drug. All inoculated microdilution trays were incubated in ambient air at 35° C. for 18-24 h. Following incubation, the lowest concentration of the drug that prevented visible growth (OD600 nm<0.05) was recorded as the MIC. Performance of the assay was monitored by the use of laboratory quality-control strains and compounds with defined MIC spectrum, in accordance with CLSI guidelines

K. pneumoniae ATCC13883 = assay: as above; assay type: cell-based; conditions: Klebsiella pneumoniae, 35° C., 18-24 h, read-out: MIC (μg/mL) K. pneumoniae ATCC13883
Protocol: as §1

P. aeruginosa 209 PAO1 = assay: as above; assay type: cell-based; conditions: Pseudomonas aeruginosa, 35° C., 18-24 h, read-out: MIC (μg/mL) P. aeruginosa 209 PAO1
Protocol: as §1

P. aeruginosa ATCC27835 = assay: as above; assay type: cell-based; conditions: Pseudomonas aeruginosa, 35° C., 18-24 h, read-out: MIC (μg/mL) P. aeruginosa ATCC27835
Protocol: as §1

E. coli LpxC = molecular target: T1, E. coli LpxC (Escherichia coli, UniProt P0A725); assay: LpxC Binding Assay (Rapid Fire MS assay); assay type: biochemical
T1 sequence (P0A725 1-305): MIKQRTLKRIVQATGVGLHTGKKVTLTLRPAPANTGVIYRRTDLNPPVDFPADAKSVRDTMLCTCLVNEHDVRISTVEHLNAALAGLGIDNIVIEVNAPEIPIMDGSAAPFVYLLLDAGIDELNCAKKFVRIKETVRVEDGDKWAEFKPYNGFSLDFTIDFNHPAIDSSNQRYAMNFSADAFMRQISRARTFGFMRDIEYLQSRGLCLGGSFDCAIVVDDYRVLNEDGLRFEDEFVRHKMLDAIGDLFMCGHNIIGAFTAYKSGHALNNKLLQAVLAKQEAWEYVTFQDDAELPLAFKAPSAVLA
Protocol: (§2) IC50 values against E. coli and P. aeruginosa LpxC are determined using a Rapid Fire MS assay as previously described J. Med. Chem. 2012, 55, 1662-1670.

P. aeruginosa LpxC = molecular target: T2, P. aeruginosa LpxC (Pseudomonas aeruginosa, UniProt P47205); assay: LpxC Binding Assay (Rapid Fire MS assay); assay type: biochemical
T2 sequence (P47205 1-303): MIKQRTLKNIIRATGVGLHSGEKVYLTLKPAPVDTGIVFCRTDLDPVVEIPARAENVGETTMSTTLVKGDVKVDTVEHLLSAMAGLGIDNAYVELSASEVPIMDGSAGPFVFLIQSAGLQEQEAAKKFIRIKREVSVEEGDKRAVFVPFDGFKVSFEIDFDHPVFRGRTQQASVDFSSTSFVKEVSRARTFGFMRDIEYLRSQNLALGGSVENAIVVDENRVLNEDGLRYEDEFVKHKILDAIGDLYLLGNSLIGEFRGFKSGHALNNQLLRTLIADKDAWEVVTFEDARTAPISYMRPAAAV
Protocol: as §2

| Structure (SMILES) | MIC (E. coli ATCC25922) [µg/mL] | MIC (K. pneumoniae ATCC13883) [µg/mL] | MIC (P. aeruginosa 209 PAO1) [µg/mL] | MIC (P. aeruginosa ATCC27835) [µg/mL] | pIC50 (E. coli LpxC) | pIC50 (P. aeruginosa LpxC) |
| --- | --- | --- | --- | --- | --- | --- |
| C[C@H](O)c1nccn1[C@@H](C#Cc1ccc(-c2ccc(C3CC(NCC(F)(F)CO)C3)cc2)cc1)CO (stereo partly drawn) [Compound 34, (S)-4-(4′-(3-((2,2-difluoro-3-hydroxypropyl)amino)cyclobutyl)-[1,1′-biphenyl]-4-yl)-2-(2-((S)-1-hydroxyethyl)-1H-imidazol-1-yl)but-3-yn-1-ol] | 0.5 (≈ 1.01 µM) | 2 (≈ 4.04 µM) | 2 (≈ 4.04 µM) | 4 (≈ 8.07 µM) | – | – |
| COCCN1C[C@@H](O)[C@H](Oc2ccc(-c3ccc(C#C[C@@H](CO)n4ccnc4[C@H](C)O)cc3)cc2)C1 [Compound 44, (3R,4R)-4-((4′-((S)-4-hydroxy-3-(2-((S)-1-hydroxyethyl)-1H-imidazol-1-yl)but-1-yn-1-yl)-[1,1′-biphenyl]-4-yl)oxy)-1-(2-methoxyethyl)pyrrolidin-3-ol] | 2 (≈ 4.07 µM) | 4 (≈ 8.14 µM) | 4 (≈ 8.14 µM) | 4 (≈ 8.14 µM) | – | – |
| C[C@H](O)c1nccn1[C@@H](C#Cc1ccc(-c2ccc(O[C@H]3COC[C@@H]3O)cc2)cc1)CO (racemic) [Compound 46, (cis)-4-((4′-((S)-4-hydroxy-3-(2-((S)-1-hydroxyethyl)-1H-imidazol-1-yl)but-1-yn-1-yl)-[1,1′-biphenyl]-4-yl)oxy)tetrahydrofuran-3-ol] | 1 (≈ 2.3 µM) | 2 (≈ 4.6 µM) | 1 (≈ 2.3 µM) | 2 (≈ 4.6 µM) | – | – |
| C[C@H](O)c1nccn1CC#Cc1ccc(-c2ccc(OCC(N)CO)cc2)cc1 (mixture of isomers) [Compound 7, 2-amino-3-((4′-(3-(2-((S)-1-hydroxyethyl)-1H-imidazol-1-yl)prop-1-yn-1-yl)-[1,1′-biphenyl]-4-yl)oxy)propan-1-ol] | 2 (≈ 5.11 µM) | 4 (≈ 10.2 µM) | 2 (≈ 5.11 µM) | 2 (≈ 5.11 µM) | 7.87 | 7.59 |
| C[C@H](O)c1nccn1[C@@H](C#Cc1ccc(-c2ccc(O[C@@H]3C[C@H]3N)cc2)cc1)CO (racemic) [Compound 4, (S)-4-(4′-((trans)-2-aminocyclopropoxy)-[1,1′-biphenyl]-4-yl)-2-(2-((S)-1-hydroxyethyl)-1H-imidazol-1-yl)but-3-yn-1-ol] | 0.25 (≈ 0.62 µM) | 0.5 (≈ 1.24 µM) | 2 (≈ 4.96 µM) | 2 (≈ 4.96 µM) | – | – |
| C[C@@H](O)c1nccn1[C@H](C#Cc1ccc(-c2ccc(OCC(N)CO)cc2)cc1)CO (mixture of isomers) [Compound 1, (2R)-4-(4′-(2-amino-3-hydroxypropoxy)-[1,1′-biphenyl]-4-yl)-2-(2-((R)-1-hydroxyethyl)-1H-imidazol-1-yl)but-3-yn-1-ol] | 8 (≈ 19 µM) | 32 (≈ 75.9 µM) | 1 (≈ 2.37 µM) | 1 (≈ 2.37 µM) | – | – |
| C[C@H](O)c1nccn1[C@H](C#Cc1ccc(-c2ccc(OC[C@@H](N)CO)cc2)cc1)CO [Compound 2, (R)-4-(4′-((S)-2-amino-3-hydroxypropoxy)-[1,1′-biphenyl]-4-yl)-2-(2-((S)-1-hydroxyethyl)-1H-imidazol-1-yl)but-3-yn-1-ol] | 8 (≈ 19 µM) | 16 (≈ 38 µM) | 2 (≈ 4.74 µM) | 2 (≈ 4.74 µM) | – | – |
| C[C@H](O)c1nccn1[C@@H](C#Cc1ccc(-c2ccc(COCC(N)CO)cc2)cc1)CO (mixture of isomers) [Compound 6, (2S)-4-(4′-((2-amino-3-hydroxypropoxy)methyl)-[1,1′-biphenyl]-4-yl)-2-(2-((S)-1-hydroxyethyl)-1H-imidazol-1-yl)but-3-yn-1-ol] | 16 (≈ 36.7 µM) | 32 (≈ 73.5 µM) | 2 (≈ 4.59 µM) | 4 (≈ 9.18 µM) | – | – |
| CC(CNC1CC(c2ccc(-c3ccc(C#C[C@@H](CO)n4ccnc4[C@H](C)O)cc3)cc2)C1)C(=O)O (stereo partly drawn) [Compound 37, 3-((3-(4′-((S)-4-hydroxy-3-(2-((S)-1-hydroxyethyl)-1H-imidazol-1-yl)but-1-yn-1-yl)-[1,1′-biphenyl]-4-yl)cyclobutyl)amino)-2-methylpropanoic acid] | 2 (≈ 4.1 µM) | 8 (≈ 16.4 µM) | 4 (≈ 8.2 µM) | 4 (≈ 8.2 µM) | – | – |
